Results as given in patent publication US20180201592A1, “2-AMINO-1,3,4-THIADIAZINE AND 2-AMINO-1,3,4-OXADIAZINE BASED ANTIFUNGAL AGENTS” (F2G Limited, priority 2015, published 2018).

Assays:
Conditions in all cases: banded MIC grade
Aspergillus fumigatus = assay: Minimum inhibitory concentration, YAG medium; type: cell-based
Summary of the method: (§1)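 Growth was read as optical density at 485 nm after 24 hrs at 35° C, and the MIC taken as the lowest drug concentration cutting growth by >70% relative to drug-free wells. Plates held doubling dilutions (50-0.05 mg/L) with 1-2×10^4 cfu/mL spores in YAG medium.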

A. fumigatus 210 [1] = assay: Minimum inhibitory concentration, YAG medium; type: cell-based, Aspergillus fumigatus
Summary of the method: as §1

A. terreus 49 [2] = assay: Minimum inhibitory concentration, YAG medium; type: cell-based, Aspergillus terreus
Summary of the method: (§2)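 MIC in mg/L, from OD485 growth read-out after 24 hrs at 35° C in YAG medium with Aspergillus spores. Doubling dilutions in water made from a 5 mg/mL DMSO stock.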

Aspergillus flavus = assay: Minimum inhibitory concentration, YAG medium; type: cell-based
Summary of the method: as §2

Aspergillus niger = assay: Minimum inhibitory concentration, YAG medium; type: cell-based
Summary of the method: as §2

Aspergillus terreus = assay: Minimum inhibitory concentration, YAG medium; type: cell-based
Summary of the method: as §2

A. flavus = assay: Minimum inhibitory concentration, RPMI medium; type: cell-based
Summary of the method: (§3)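 Growth was measured by OD at 485 nm after 24-48 hrs at 35° C in RPMI 1640 medium. Compound was serially diluted twofold in water, starting from a 5 mg/mL DMSO stock solution.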

A. niger = assay: Minimum inhibitory concentration, RPMI medium; type: cell-based
Summary of the method: as §3

A. terreus 49 [3] = assay: Minimum inhibitory concentration, RPMI medium; type: cell-based
Summary of the method: as §3

A. terreus = assay: Minimum inhibitory concentration, RPMI medium; type: cell-based
Summary of the method: as §3

C. albicans = assay: Minimum inhibitory concentration, RPMI medium; type: cell-based
Summary of the method: as §3

C. glabrata = assay: Minimum inhibitory concentration, RPMI medium; type: cell-based
Summary of the method: as §3

C. krusei = assay: Minimum inhibitory concentration, RPMI medium; type: cell-based
Summary of the method: as §3

C. parapsilosis = assay: Minimum inhibitory concentration, RPMI medium; type: cell-based
Summary of the method: as §3

C. tropicalis = assay: Minimum inhibitory concentration, RPMI medium; type: cell-based
Summary of the method: as §3

A. fumigatus 210 [4] = assay: Minimum inhibitory concentration, RPMI medium; type: cell-based
Summary of the method: (§4)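 Broth microdilution in RPMI 1640 (2% glucose, 0.135 M MOPS, pH 7.0) at 1-2×10^4 cfu/mL, testing 50-0.05 mg/L in doubling steps. After 24-48 hrs at 35° C, OD at 485 nm was read, and the MIC was taken as the lowest drug level suppressing growth by >80% relative to drug-free wells.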

A. fumigatus = assay: Minimum inhibitory concentration, RPMI medium; type: cell-based
Summary of the method: as §4

SMILES	MIC grade, A. FUMIGATUS, YAG media (Aspergillus fumigatus)	MIC grade, A. FUMIGATUS 210, YAG media (A. fumigatus 210 [1])	MIC grade, A. TERREUS 49, YAG media (A. terreus 49 [2])	MIC grade, A. FLAVUS, YAG media (Aspergillus flavus)	MIC grade, A. NIGER, YAG media (Aspergillus niger)	MIC grade, A. TERREUS, YAG media (Aspergillus terreus)	MIC grade, A. FLAVUS, RPMI media (A. flavus)	MIC grade, A. NIGER, RPMI media (A. niger)	MIC grade, A. TERREUS 49, RPMI media (A. terreus 49 [3])	MIC grade, A. TERREUS, RPMI media (A. terreus)	MIC grade, C. ALBICANS, RPMI media (C. albicans)	MIC grade, C. GLABRATA, RPMI media (C. glabrata)	MIC grade, C. KRUSEI, RPMI media (C. krusei)	MIC grade, C. PARAPSILOSIS, RPMI media (C. parapsilosis)	MIC grade, C. TROPICALIS, RPMI media (C. tropicalis)	MIC grade, A. FUMIGATUS 210, RPMI media (A. fumigatus 210 [4])	MIC grade, A. FUMIGATUS, RPMI media (A. fumigatus)
NC1=NN=C(CCCCOCc2cccc(Cl)c2)CS1	4 (4: <0.2 mg/L)	4 (4: <0.2 mg/L)	4 (4: <0.2 mg/L)	4 (4: <0.2 mg/L)	4 (4: <0.2 mg/L)	4 (4: <0.2 mg/L)	4 (4: <1 mg/L)	3 (3: 1-5 mg/L)	3 (3: 1-5 mg/L)	3 (3: 1-5 mg/L)	4 (4: <1 mg/L)	3 (3: 1-5 mg/L)	4 (4: <1 mg/L)	4 (4: <1 mg/L)	4 (4: <1 mg/L)	2 (2: 5-20 mg/L)	4 (4: <1 mg/L)
NC1=NN=C(CCCCOCc2ccc(Cl)cc2F)CS1	4 (4: <0.2 mg/L)	4 (4: <0.2 mg/L)	4 (4: <0.2 mg/L)	4 (4: <0.2 mg/L)	3 (3: 0.2-1 mg/L)	4 (4: <0.2 mg/L)	4 (4: <1 mg/L)	3 (3: 1-5 mg/L)	3 (3: 1-5 mg/L)	3 (3: 1-5 mg/L)	4 (4: <1 mg/L)	3 (3: 1-5 mg/L)	4 (4: <1 mg/L)	4 (4: <1 mg/L)	4 (4: <1 mg/L)	2 (2: 5-20 mg/L)	2 (2: 5-20 mg/L)
NC1=NN=C(CCCCOCc2ccccc2CCc2ccccc2)CS1	1 (1: ≥5 mg/L)	1 (1: ≥5 mg/L)	1 (1: ≥5 mg/L)	2 (2: 1-5 mg/L)	1 (1: ≥5 mg/L)	2 (2: 1-5 mg/L)	1 (1: ≥20 mg/L)	1 (1: ≥20 mg/L)	2 (2: 5-20 mg/L)	2 (2: 5-20 mg/L)	2 (2: 5-20 mg/L)	1 (1: ≥20 mg/L)	2 (2: 5-20 mg/L)	2 (2: 5-20 mg/L)	2 (2: 5-20 mg/L)	1 (1: ≥20 mg/L)	1 (1: ≥20 mg/L)
Cc1cc(COCCCCC2=NN=C(N)SC2)ccc1F	4 (4: <0.2 mg/L)	4 (4: <0.2 mg/L)	4 (4: <0.2 mg/L)	4 (4: <0.2 mg/L)	4 (4: <0.2 mg/L)	4 (4: <0.2 mg/L)	4 (4: <1 mg/L)	3 (3: 1-5 mg/L)	3 (3: 1-5 mg/L)	3 (3: 1-5 mg/L)	4 (4: <1 mg/L)	3 (3: 1-5 mg/L)	4 (4: <1 mg/L)	4 (4: <1 mg/L)	4 (4: <1 mg/L)	2 (2: 5-20 mg/L)	4 (4: <1 mg/L)
